Consider 22 compounds from patent US6653307B2, “1-aryl-4-oxo-1,4-dihydro-3-quinolinecarboxamides as antiviral agents” (Pharmacia & Upjohn Company, priority 2000, dated 2003).

Usually IC50 stands for the point on the concentration scale where inhibition reaches its midpoint. A higher IC50 goes with a need for much substance. As usually defined, the melting point is the temperature, or range, at which the solid turns liquid.

One data set addresses VZV polymerase (Varicella-zoster virus, UniProt P09252). Briefly: VZV polymerase assay (Table 1). Format: biochemical. The method, then: [Worded in the source for another target; this target is reported under the same test.] (§1) The HCMV polymerase assay is performed using a scintillation proximity assay (SPA) as described in several references, such as N.D. Cook, et al., Pharmaceutical Manufacturing International, pages 49-53 (1992); K. Takeuchi, Laboratory Practice, September issue (1992); U.S. Pat. No. 4,568,649 (1986); which are incorporated by reference herein. Reactions are performed in 96-well plates. The assay is conducted in 100 μl volume with 5.4 mM HEPES (pH 7.5), 11.7 mM KCl, 4.5 mM MgCl2, 0.36 mg/ml BSA, and 90 nM ^3H-dTTP. Assays are run with and without CHAPS, (3-[(3-cholamidopropyl)-dimethylammonio]-1-propane-sulfonate) at a final concentration of 2 mM. HCMV polymerase is diluted in enzyme dilution buffer containing 50% glycerol, 250 mM NaCl, 10 mM HEPES (pH 7.5), 100 μg/ml BSA, and 0.01% sodium azide. The HCMV polymerase, which is expressed in recombinant baculovirus-infected SF-9 cells and purified according to literature procedures, is added at 10% (or 10 μl) of the final reaction volume, i.e., […]. Compounds are diluted in 50% DMSO and 10 μl are added to each well. Control wells contain an equivalent concentration of DMSO. Unless noted otherwise, reactions are initiated via the addition of 6 nM biotinylated poly(dA)-oligo(dT) template/primer to reaction mixtures containing the enzyme, substrate, and compounds of interest. Plates are incubated in a 25 C or 37 C H2O bath and terminated via the addition of 40 μl/reaction of 0.5 M EDTA (pH 8) per well. Reactions are terminated within the time-frame during which substrate incorporation is linear and varied depending upon the enzyme and conditions used, i.e., 30 min. for HCMV polymerase. Ten μl of streptavidin-SPA beads (20 mg/ml in PBS/10% glycerol) are added following termination of the reaction. Plates are incubated 10 min. at 37 C, then equilibrated to room temperature, and counted on a Packard Topcount. Linear regressions are performed and IC50's are calculated using computer software. A modified version of the above HCMV polymerase assay is performed as described above, but with the following changes: Compounds are diluted in 100% DMSO until final dilution into assay buffer. In the previous assay, compounds are diluted in 50% DMSO. 4.5 mM dithiotherotol (DTT) is added to the polymerase buffer.

The target of another data set is HSV polymerase (Human herpesvirus 1, UniProt P04293). Briefly: HSV polymerase assay (Table 1). Format: biochemical. Here is the method: [Worded in the source for another target; this target is reported under the same test.] as §1
A further data set addresses T1, HCMV polymerase (Human cytomegalovirus, UniProt P08546).
T1 construct: made in house; host or cells: recombinant baculovirus-infected SF-9 cells
Put plainly: HCMV polymerase scintillation proximity assay (SPA). Conditions: 3H-dTTP incorporation. In kind it is biochemical. The method, then: as §1
A general note: Scintillation proximity formats need no separation of bound from free tracer.

T1 sequence (P08546 whole entry): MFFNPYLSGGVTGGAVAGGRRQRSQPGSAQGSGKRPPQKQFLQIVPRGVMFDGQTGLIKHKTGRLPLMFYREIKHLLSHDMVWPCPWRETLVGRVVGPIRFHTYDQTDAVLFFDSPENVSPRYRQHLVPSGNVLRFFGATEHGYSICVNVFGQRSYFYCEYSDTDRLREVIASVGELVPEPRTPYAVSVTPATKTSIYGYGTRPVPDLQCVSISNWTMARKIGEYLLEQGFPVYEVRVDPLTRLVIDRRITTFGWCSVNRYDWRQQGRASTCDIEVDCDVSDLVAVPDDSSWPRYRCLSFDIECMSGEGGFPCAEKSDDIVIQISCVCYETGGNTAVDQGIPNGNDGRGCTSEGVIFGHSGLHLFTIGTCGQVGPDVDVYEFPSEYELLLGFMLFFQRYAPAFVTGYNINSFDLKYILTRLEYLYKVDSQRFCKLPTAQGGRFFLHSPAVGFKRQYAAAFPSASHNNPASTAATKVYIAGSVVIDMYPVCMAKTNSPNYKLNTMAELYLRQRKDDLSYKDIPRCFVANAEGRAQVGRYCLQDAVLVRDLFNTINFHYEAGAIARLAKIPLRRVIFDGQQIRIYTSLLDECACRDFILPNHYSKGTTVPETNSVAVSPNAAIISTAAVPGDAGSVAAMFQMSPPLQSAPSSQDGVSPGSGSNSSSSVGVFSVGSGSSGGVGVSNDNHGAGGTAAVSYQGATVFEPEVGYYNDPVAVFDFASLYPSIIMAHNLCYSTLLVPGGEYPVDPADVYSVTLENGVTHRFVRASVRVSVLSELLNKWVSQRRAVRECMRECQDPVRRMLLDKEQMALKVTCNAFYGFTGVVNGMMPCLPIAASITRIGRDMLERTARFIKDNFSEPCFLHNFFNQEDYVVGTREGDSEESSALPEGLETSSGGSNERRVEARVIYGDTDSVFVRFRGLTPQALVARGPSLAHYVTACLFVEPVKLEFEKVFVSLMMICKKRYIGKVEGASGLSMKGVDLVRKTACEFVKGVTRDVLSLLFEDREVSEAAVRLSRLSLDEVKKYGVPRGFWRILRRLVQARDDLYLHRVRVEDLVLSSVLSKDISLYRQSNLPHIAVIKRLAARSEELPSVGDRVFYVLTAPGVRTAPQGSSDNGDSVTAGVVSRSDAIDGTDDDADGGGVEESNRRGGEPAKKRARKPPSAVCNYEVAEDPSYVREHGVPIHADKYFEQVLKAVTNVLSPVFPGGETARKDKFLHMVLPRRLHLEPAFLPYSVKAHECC
Chain of HSV polymerase (P04293 whole entry): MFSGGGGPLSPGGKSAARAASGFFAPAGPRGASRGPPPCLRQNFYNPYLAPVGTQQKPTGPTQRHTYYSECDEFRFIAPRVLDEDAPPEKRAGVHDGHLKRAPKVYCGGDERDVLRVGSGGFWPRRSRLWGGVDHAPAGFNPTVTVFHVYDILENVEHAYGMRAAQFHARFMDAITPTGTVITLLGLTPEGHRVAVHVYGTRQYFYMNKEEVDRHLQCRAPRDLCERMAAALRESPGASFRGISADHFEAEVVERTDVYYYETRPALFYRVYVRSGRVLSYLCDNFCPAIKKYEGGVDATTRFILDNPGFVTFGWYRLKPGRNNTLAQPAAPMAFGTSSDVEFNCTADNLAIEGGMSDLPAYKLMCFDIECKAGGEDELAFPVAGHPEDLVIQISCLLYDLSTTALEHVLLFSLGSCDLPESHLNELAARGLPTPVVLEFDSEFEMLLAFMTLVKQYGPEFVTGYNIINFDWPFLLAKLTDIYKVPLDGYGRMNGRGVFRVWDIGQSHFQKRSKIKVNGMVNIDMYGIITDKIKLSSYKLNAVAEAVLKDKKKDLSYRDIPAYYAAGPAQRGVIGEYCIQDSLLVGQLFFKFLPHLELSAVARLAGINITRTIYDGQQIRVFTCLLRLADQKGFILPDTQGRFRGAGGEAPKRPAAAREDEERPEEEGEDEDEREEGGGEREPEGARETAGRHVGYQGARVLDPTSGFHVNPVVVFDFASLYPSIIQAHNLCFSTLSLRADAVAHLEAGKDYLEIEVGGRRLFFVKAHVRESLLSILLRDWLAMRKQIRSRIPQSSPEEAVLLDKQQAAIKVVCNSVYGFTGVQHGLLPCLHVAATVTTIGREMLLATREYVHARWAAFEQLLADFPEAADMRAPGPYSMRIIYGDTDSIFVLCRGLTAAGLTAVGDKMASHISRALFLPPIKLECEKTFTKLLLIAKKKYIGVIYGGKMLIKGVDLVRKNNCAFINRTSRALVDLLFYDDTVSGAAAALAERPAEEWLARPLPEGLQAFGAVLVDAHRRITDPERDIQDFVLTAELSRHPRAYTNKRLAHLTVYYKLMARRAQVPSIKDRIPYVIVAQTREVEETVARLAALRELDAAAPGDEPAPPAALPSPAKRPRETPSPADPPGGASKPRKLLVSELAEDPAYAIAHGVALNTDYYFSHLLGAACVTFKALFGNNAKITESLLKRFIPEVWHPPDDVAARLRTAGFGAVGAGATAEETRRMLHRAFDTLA
Chain of VZV polymerase (P09252 whole entry): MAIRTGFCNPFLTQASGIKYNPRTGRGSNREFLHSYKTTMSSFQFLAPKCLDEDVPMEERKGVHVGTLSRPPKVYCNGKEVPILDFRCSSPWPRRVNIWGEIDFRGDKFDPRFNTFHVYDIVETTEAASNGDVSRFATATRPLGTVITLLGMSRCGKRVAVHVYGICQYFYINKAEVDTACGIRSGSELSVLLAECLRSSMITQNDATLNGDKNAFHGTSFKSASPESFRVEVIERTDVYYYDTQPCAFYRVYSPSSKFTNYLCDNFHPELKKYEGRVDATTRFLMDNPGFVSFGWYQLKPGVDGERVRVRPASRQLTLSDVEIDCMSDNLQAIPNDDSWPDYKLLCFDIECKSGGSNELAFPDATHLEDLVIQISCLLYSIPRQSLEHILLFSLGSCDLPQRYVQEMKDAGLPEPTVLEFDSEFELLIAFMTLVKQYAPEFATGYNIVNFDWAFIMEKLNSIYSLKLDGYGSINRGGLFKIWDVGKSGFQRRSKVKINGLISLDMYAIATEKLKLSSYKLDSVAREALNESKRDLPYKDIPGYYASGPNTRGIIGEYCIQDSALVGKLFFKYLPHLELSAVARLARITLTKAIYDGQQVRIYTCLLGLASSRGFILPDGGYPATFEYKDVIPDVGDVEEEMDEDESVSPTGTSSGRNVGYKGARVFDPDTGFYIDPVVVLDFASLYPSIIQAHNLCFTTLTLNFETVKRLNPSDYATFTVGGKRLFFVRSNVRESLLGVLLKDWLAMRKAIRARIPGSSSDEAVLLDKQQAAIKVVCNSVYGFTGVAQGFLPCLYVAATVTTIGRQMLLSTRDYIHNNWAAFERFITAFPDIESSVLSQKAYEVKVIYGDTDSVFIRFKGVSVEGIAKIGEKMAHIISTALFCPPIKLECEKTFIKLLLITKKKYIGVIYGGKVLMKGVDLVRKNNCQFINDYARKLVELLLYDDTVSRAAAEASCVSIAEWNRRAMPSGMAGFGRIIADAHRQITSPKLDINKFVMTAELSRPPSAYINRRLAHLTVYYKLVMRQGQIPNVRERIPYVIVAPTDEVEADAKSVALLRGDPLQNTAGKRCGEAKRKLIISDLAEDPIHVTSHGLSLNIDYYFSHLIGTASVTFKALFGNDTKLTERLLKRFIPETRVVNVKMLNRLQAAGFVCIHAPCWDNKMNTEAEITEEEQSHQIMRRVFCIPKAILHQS

Turning to `O=C(NCc1ccc(Cl)cc1)c1cn(-c2ccccc2)c2ccc(CN3CCOCC3)cc2c1=O` [Example 1, N-(4-Chlorobenzyl)-6-(4-morpholinylmethyl)-4-oxo-1-phenyl-1,4-dihydro-3-quinolinecarboxamide], the melting point is 168 to 169 °C. Also, at VZV polymerase, half-maximal inhibition (IC50) was put at 0.4 µM. At HSV polymerase, this compound showed an IC50 of 0.55 µM. Moreover, at HCMV polymerase, inhibition was half-maximal at 0.81 µM (IC50).

In the case of `O=C(NCc1ccc(Cl)cc1)c1cn(-c2ccc(Cl)cc2)c2ccc(CN3CCOCC3)cc2c1=O` [Example 4, N-(4-Chlorobenzyl)-1-(4-chlorophenyl)-6-(4-morpholinylmethyl)-4-oxo-1,4-dihydro-3-quinolinecarboxamide], the melting point fell in the range of 189 to 191 °C. This compound also registered an IC50 on HCMV polymerase of 1.1 µM.

`O=C(NCc1ccc(F)cc1)c1cn(-c2ccc(Cl)cc2)c2ccc(CN3CCOCC3)cc2c1=O` [Example 7, N-(4-Fluorobenzyl)-1-(4-chlorophenyl)-6-(4-morpholinylmethyl)-4-oxo-1,4-dihydro-3-quinolinecarboxamide] showed an IC50 against HCMV polymerase of 2 µM.

Compound `O=C(NCc1ccc(Cl)cc1)c1cn(-c2cccc(O)c2)c2ccc(CN3CCOCC3)cc2c1=O` [Example 13, N-(4-Chlorobenzyl)-I-(3-hydroxyphenyl)-6-(4-morpholinylmethyl)-4-oxo-1,4-dihydro-3-quinolinecarboxamide] gave a melting point of 248 to 250 °C. For the same compound, on VZV polymerase, the IC50 is 0.24 µM. Also, the IC50 against HSV polymerase amounted to 0.54 µM. At HCMV polymerase, the IC50 amounted to 0.73 µM.

Turning to `O=C(NCc1ccc(Cl)cc1)c1cn(-c2cccc(CCCCCO)c2)c2ccc(CN3CCOCC3)cc2c1=O` [Example 23, N-(4-Chlorobenzyl)-1-(3-(5-hydroxypentyl)phenyl)-6-(4-morpholinylmethyl)-4-oxo-1,4-dihydro-3-quinolinecarboxamide], the melting point fell in the range of 142 to 144 °C. The same compound came in with an IC50 against HCMV polymerase of 0.76 µM.

`O=C(NCc1ccc(Cl)cc1)c1cn(-c2cccc(CCO)c2)c2ccc(CN3CCOCC3)cc2c1=O` [Example 14, N-(4-Chlorobenzyl)-1-(3-(2-hydroxyethyl)phenyl)-6-(4-morpholinylmethyl)-4-oxo-1,4-dihydro-3-quinolinecarboxamide] came in with a melting point of 158 to 160 °C. The compound also registered an IC50 against VZV polymerase of 0.43 µM. On HSV polymerase, this compound had an IC50 of 0.7 µM. The IC50 at HCMV polymerase worked out at 0.82 µM.

Regarding `COc1ccc(-n2cc(C(=O)NCc3ccc(Cl)cc3)c(=O)c3cc(CN4CCOCC4)ccc32)cc1` [Example 6, N-(4-Chlorobenzyl)-1-(4-methoxyphenyl)-6-(4-morpholinylmethyl)-4-oxo-1,4-dihydro-3-quinolinecarboxamide], the melting point lay in the range of 189 to 191 °C. For the same compound, the IC50 on HCMV polymerase came to 1.1 µM.

The compound `COc1cccc(-n2cc(C(=O)NCc3ccc(Cl)cc3)c(=O)c3cc(CN4CCOCC4)ccc32)c1` [Example 16, N-(4-Chlorobenzyl)-1-(3-methoxyphenyl)-6-(4-morpholinylmethyl)-4-oxo-1,4-dihydro-3-quinolinecarboxamide] gave a melting point of 110 to 113 °C. Moreover, on HCMV polymerase, the IC50 is 1.9 µM.

Compound `O=C(NCc1ccc(Cl)cc1)c1cn(-c2cccc(C#CCCCO)c2)c2ccc(CN3CCOCC3)cc2c1=O` [Example 22] yielded a melting point of 125 to 128 °C. On HCMV polymerase, this compound displayed an IC50 of 0.93 µM.

As for `O=C(NCc1ccc(Cl)cc1)c1cn(-c2ccc3[nH]ccc3c2)c2ccc(CN3CCOCC3)cc2c1=O` [Example 11, N-(4-Chlorobenzyl)-1-(1H-indol-5-yl)-6-(4-morpholinylmethyl)-4-oxo-1,4-dihydro-3-quinolinecarboxamide], the melting point was 241 to 243 °C. At HCMV polymerase, this compound showed an IC50 of 1.18 µM.

`O=C(NCc1ccc(Cl)cc1)c1cn(-c2cccc(CCCCO)c2)c2ccc(CN3CCOCC3)cc2c1=O` [Example 24, N-(4-Chlorobenzyl)-1-(3-(4-hydroxybutyl)phenyl)-6-(4-morpholinylmethyl)-4-oxo-1,4-dihydro-3-quinolinecarboxamide] returned a melting point of 119 to 121 °C. On HCMV polymerase, this compound registered an IC50 of 0.68 µM.

The compound `O=C(NCc1ccc(Cl)cc1)c1cn(-c2cccc(I)c2)c2ccc(CN3CCOCC3)cc2c1=O` [Example 3, N-(4-Chlorobenzyl)-1-(3-iodophenyl)-6-(4-morpholinylmethyl)-4-oxo-1,4-dihydro-3-quinolinecarboxamide] showed a melting point of 176 to 179 °C. On HCMV polymerase, this compound came in with an IC50 of 2.1 µM.

On to `O=C(NCc1ccc(Cl)cc1)c1cn(-c2ccc(N3CCOCC3)cc2)c2ccc(CN3CCOCC3)cc2c1=O` [Example 18, N-(4-Chlorobenzyl)-6-(4-morpholinylmethyl)-1-(4-(4-morpholinyl)phenyl)-4-oxo-1,4-dihydro-3-quinolinecarboxamide], for which the melting point was 162 to 164 °C. This compound also showed an IC50 on HCMV polymerase of 1.21 µM.

`O=C(NCc1ccc(Cl)cc1)c1cn(-c2ccccc2CO)c2ccc(CN3CCOCC3)cc2c1=O` [Example 8, N-(4-Chlorobenzyl)-1-(2-(hydroxymethyl)phenyl)-6-(4-morpholinylmethyl)-4-oxo-1,4-dihydro-3-quinolinecarboxamide] displayed a melting point of 162 to 163 °C. For the same compound, the IC50 against HCMV polymerase was determined as 1.47 µM.

In the case of `Cc1ccccc1-n1cc(C(=O)NCc2ccc(Cl)cc2)c(=O)c2cc(CN3CCOCC3)ccc21` [Example 2, N-(4-Chlorobenzyl)-1-(2-methylphenyl)-6-(4-morpholinylmethyl)-4-oxo-1,4-dihydro-3-quinolinecarboxamide], the melting point was 148 to 150 °C. The compound further displayed an IC50 against HCMV polymerase of 3 µM.

With `CC(C)c1ccc(-n2cc(C(=O)NCc3ccc(Cl)cc3)c(=O)c3cc(CN4CCOCC4)ccc32)cc1` [Example 5, N-(4-Chlorobenzyl)-1-(4-isopropylphenyl)-6-(4-morpholinylmethyl)-4-oxo-1,4-dihydro-3-quinolinecarboxamnide], the melting point lay in the range of 199 to 203 °C. Also, at HCMV polymerase, the IC50 is 4 µM.

`O=C(NCc1ccc(Cl)cc1)c1cn(-c2ccc(F)c(F)c2)c2ccc(CN3CCOCC3)cc2c1=O` [Example 19, N-(4-Chlorobenzyl)-1-(3,4-difluorophenyl)-6-(4-morpholinylmethyl)-4-oxo-1,4-dihydro-3-quinolinecarboxamide]: the melting point fell in the range of 107 to 110 °C. Further, it took 1.05 µM to reach half-maximal inhibition on HCMV polymerase (IC50).

Compound `O=C(NCc1ccc(Cl)cc1)c1cn(-c2ccc3c(c2)OCO3)c2ccc(CN3CCOCC3)cc2c1=O` [Example 10, 1-(1,3-Benzodioxol-5-yl)-N-(4-chlorobenzyl)-6-(4-morpholinylmethyl)-4-oxo-1,4-dihydro-3-quinolinecarboxamide] had a melting point of 188 to 189 °C. At HCMV polymerase, this compound showed an IC50 of 0.89 µM.

Consider `O=C(NCc1ccc(F)cc1)c1cn(-c2ccc3[nH]ccc3c2)c2ccc(CN3CCOCC3)cc2c1=O` [Example 12, N-(4-Fluorobenzyl)-1-(1 H-indol-5-yl)-6-(4-morpholinylmethyl)-4-oxo-1,4-dihydro-3-quinolinecarboxamide], for which the melting point was 223 to 225 °C. In addition, inhibition against HCMV polymerase was half-maximal at 2.2 µM (IC50).

In the case of `O=C(NCc1ccc(F)cc1)c1cn(-c2cccc(CCO)c2)c2ccc(CN3CCOCC3)cc2c1=O` [Example 15, N-(4-Fluorobenzyl)-1-(3-(2-hydroxyethyl)phenyl)-6-(4-morpholinylmethyl)-4-oxo-1,4-dihydro-3-quinolinecarboxamide], the melting point lay within 128 to 132 °C. The compound further came in with an IC50 against HCMV polymerase of 1.7 µM.

The compound `O=C(NCc1ccc(Cl)cc1)c1cn(-c2ccc3c(c2)CCC3)c2ccc(CN3CCOCC3)cc2c1=O` [Example 9, N-(4-Chlorobenzyl)-1-(2,3-dihydro-1H-inden-5-yl)-6-(4-morpholinylmethyl)-4-oxo-1,4-dihydro-3-quinolinecarboxamide] had a melting point of 123 to 125 °C. Further, at HCMV polymerase, half-maximal inhibition (IC50) was put at 1.32 µM.

For `O=C(NCc1ccc(Cl)cc1)c1cn(-c2cccc(C#CCCO)c2)c2ccc(CN3CCOCC3)cc2c1=O` [Example 21, N-(4-Chlorobenzyl)-1-(3-(4-hydroxy-1-butynyl)phenyl)-6-(4-morpholinylmethyl)-4-oxo-1,4-dihydro-3-quinolinecarboxamide], the melting point lay within 125 to 128 °C. In addition, on HCMV polymerase, the IC50 amounted to 1.13 µM.
